Consider nine compounds from patent US9951068B2 (Proximagen Limited, priority 2013, dated 2018).

One may read the IC50 as the concentration that gives 50% inhibition.

Data set [1] addresses purified recombinantly expressed human SSAO (Homo sapiens (Human), UniProt Q16853). The data set is described as follows: SSAO enzyme inhibition assay (HRP-coupled hydrogen peroxide detection or 14C-benzaldehyde detection, benzylamine substrate). Format: biochemical. To be noted: SSAO inhibitory activity, human recombinant SSAO, RT. The method in brief:
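Human recombinant SSAO pre-incubated ~15 min with compound, room temperature. Radiometric format: 10 ug/ml enzyme, 40 uM 14C-benzylamine, 1 h, in PBS. IC50 by four-parameter fit.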

In data set [2] the target is human ether a go-go related gene (hERG) K+ channel (Homo sapiens (Human), UniProt Q12809). In words: hERG assay, IonWorks patch clamp electrophysiology. Format: cell-based. To be noted: Chinese Hamster Lung cell line stably expressing hERG; max assay concentration 11 uM. How it is done: Compounds of the invention were tested for inhibition of the human ether a go-go related gene (hERG) K^+ channel using IonWorks patch clamp electrophysiology. 8 Point concentration-response curves were generated on two occasions using 3-fold serial dilutions from the maximum assay concentration (11 uM). Electrophysiological recordings were made from a Chinese Hamster Lung cell line stably expressing the full length hERG channel. Single cell ion currents were measured in the perforated patch clamp configuration (100 ug/mL amphoterocin) at room temperature using an IonWorks Quattro instrument. The internal solution contained 140 mM KCl, 1 mM MgCl2, 1 mM EGTA and 20 mM HEPES and was buffered to pH 7.3. The external solution contained 138 mM NaCl, 2.7 mM KCl, 0.9 mM CaCl2, 0.5 mM MgCl2, 8 mM Na2HPO4 and 1.5 mM KH2PO4, and was buffered to pH 7.3. […] This sequence was repeated 5 times at a frequency of 0.25 Hz. Currents were measured from the tail step at the 5th pulse, and referenced to the holding current. Compounds were incubated for 6-7 min prior to a second measurement of the hERG signal using an identical pulse train. […] A control compound (quinidine) was used (see Table 20 below).
Chain of human ether a go-go related gene (hERG) K+ channel (Q12809 whole entry): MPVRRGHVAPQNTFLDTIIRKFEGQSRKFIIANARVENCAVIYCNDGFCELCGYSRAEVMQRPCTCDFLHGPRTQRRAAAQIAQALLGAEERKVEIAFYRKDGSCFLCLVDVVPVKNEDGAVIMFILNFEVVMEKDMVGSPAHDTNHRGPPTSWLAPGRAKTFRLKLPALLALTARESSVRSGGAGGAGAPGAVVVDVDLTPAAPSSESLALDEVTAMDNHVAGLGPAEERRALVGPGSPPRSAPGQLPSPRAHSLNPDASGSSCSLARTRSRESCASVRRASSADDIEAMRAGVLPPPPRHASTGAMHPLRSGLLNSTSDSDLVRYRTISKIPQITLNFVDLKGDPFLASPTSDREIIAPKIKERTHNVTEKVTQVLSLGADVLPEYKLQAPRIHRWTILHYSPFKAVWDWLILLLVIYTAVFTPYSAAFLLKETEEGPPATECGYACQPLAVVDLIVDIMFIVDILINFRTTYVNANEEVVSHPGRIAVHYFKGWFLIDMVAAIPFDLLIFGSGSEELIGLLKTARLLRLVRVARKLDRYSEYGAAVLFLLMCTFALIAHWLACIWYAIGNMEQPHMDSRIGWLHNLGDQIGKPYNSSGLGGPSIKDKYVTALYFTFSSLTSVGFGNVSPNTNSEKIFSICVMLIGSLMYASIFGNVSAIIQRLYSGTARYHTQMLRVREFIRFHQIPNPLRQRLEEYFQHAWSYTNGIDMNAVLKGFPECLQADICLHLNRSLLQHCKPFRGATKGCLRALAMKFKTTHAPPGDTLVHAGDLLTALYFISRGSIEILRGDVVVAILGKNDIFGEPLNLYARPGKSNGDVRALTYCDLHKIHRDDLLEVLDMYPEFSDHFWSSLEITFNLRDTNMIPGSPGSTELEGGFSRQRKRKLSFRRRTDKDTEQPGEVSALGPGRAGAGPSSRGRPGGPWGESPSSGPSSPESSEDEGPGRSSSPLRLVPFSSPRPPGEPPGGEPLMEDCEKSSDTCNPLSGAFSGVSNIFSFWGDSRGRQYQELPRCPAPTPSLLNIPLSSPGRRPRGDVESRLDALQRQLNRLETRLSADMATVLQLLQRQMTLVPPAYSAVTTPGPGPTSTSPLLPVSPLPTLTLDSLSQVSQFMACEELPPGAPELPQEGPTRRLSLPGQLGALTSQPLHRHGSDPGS

Chain of purified recombinantly expressed human SSAO (Q16853 29-763): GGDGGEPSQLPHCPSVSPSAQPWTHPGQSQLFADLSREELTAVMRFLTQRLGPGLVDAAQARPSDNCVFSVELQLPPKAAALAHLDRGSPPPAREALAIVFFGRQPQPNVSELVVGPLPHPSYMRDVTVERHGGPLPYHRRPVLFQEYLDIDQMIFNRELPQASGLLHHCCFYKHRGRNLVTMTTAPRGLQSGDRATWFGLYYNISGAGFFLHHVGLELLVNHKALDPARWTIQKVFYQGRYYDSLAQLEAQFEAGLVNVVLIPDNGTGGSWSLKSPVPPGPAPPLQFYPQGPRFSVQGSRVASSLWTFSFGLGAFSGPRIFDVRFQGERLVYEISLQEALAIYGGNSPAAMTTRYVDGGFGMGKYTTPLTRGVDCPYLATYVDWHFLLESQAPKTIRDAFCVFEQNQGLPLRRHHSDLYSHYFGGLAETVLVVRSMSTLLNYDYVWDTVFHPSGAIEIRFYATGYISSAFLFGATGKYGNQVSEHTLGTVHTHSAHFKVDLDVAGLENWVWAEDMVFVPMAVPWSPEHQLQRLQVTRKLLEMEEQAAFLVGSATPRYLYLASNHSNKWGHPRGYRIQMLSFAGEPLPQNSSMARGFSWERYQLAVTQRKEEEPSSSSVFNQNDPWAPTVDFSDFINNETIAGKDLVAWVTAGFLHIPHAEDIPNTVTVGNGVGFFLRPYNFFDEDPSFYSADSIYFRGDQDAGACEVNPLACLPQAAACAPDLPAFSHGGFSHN

`Fc1ccc(-n2c(-c3cnc(N4CCOCC4)nc3)nc3ccncc32)c(F)c1` [Example 78, 4-{5-[3-(2,4-Difluorophenyl)-3H-imidazo[4,5-c]pyridin-2-yl]pyrimidin-2-yl}morpholine]: the figures for the IC50 in data set [1] and in data set [2] were under 50 nM and over 10000 nM, respectively.

As to `Clc1ccc(-n2c(-c3ccc(N4CCOCC4)nc3)nc3ccncc32)nc1` [Example 81, 4-{5-[3-(5-Chloropyridin-2-yl)-3H-imidazo[4,5-c]pyridin-2-yl]pyridin-2-yl}morpholine], the IC50 in data set [1] was under 50 nM; in data set [2] it was over 10000 nM.

Consider `Cc1ccc(-n2c(-c3ccc(N4CCOCC4)nc3)nc3ccncc32)nc1` [Example 82, 4-{5-[3-(5-Methylpyridin-2-yl)-3H-imidazo[4,5-c]pyridin-2-yl]pyridin-2-yl}morpholine], for which the IC50 in data set [1] is under 50 nM; in data set [2], over 10000 nM.

On to `CC(=O)NC1CCN(c2ccc(-c3nc4ccncc4n3-c3ccc(Cl)cc3)cn2)CC1` [Example 85, N-(1-{5-[3-(4-Chlorophenyl)-3H-imidazo[4,5-c]pyridin-2-yl]pyridin-2-yl}piperidin-4-yl)acetamide], for which the figures for the IC50 in data set [1] and in data set [2] were under 50 nM and over 10000 nM, respectively.

Regarding `CC(=O)N1CCN(c2ccc(-c3nc4ccncc4n3-c3ccc(F)cc3)cn2)CC1` [Example 86, 1-(4-{5-[3-(4-Fluorophenyl)-3H-imidazo[4,5-c]pyridin-2-yl]pyridin-2-yl}piperazin-1-yl)ethan-1-one], the IC50 is under 50 nM in data set [1] and over 10000 nM in data set [2].

`CS(=O)(=O)N1CCN(c2ccc(-c3nc4ccncc4n3-c3ccc(F)cc3)cn2)CC1` [Example 89, 1-{5-[3-(4-Fluorophenyl)-3H-imidazo[4,5-c]pyridin-2-yl]pyridin-2-yl}-4-methanesulfonylpiperazine]: the IC50 in data set [1] was under 50 nM; in data set [2], over 10000 nM.

For `NC(=O)N1CCN(c2ccc(-c3nc4ccncc4n3-c3ccc(F)cc3)cn2)CC1` [Example 92, 4-{5-[3-(4-Fluorophenyl)-3H-imidazo[4,5-c]pyridin-2-yl]pyridin-2-yl}piperazine-1-carboxamide], the results for the IC50 in data set [1] and in data set [2] were under 50 nM and over 10000 nM, respectively.

For `O=C1CN(c2ncc(-c3cc4ccncc4n3-c3ccc(Cl)cc3)cn2)CCN1` [Example 128, 4-{5-[1-(4-Chlorophenyl)-1H-pyrrolo[2,3-c]pyridin-2-yl]pyrimidin-2-yl}piperazin-2-one], the IC50 is under 50 nM in data set [1] and over 10000 nM in data set [2].

For the compound `Cn1cncc1-c1cc2ccncc2n1-c1ccc(Cl)cc1` [Example 136, 5-[1-(4-Chlorophenyl)-1H-pyrrolo[2,3-c]pyridin-2-yl]-1-methyl-1H-im idazole], the IC50 in data set [1] was under 50 nM; in data set [2] it was 1000 to 10000 nM.
